15 compounds from patent US20040077640A1 (priority 2000, published 2004) can be followed below.

Structures can show the parent of a compound that is named as a salt.

`CC(C)(C)OC(=O)N1CCC(c2nc(-c3ccc(F)cc3)c[nH]2)CC1` showed a melting point of 180 to 182 °C.

For `CCCCOC(=O)N1CCCC(c2nc(-c3ccc(F)cc3)c[nH]2)C1` (stereo not drawn), the melting point was determined as 96.5 °C.

On to `CCCCOC(=O)N1CCCCC1c1nc(-c2ccc(F)cc2)c[nH]1` (stereo not drawn), for which the melting point worked out at 157.4 °C.

Take `Fc1ccc(-c2c[nH]c(C3CCNCC3)n2)cc1` (as salt: hydrochloride): the melting point is above 260 °C.

Turning to `Fc1ccc(-c2c[nH]c(C3CCCCN3)n2)cc1` (stereo not drawn) (as salt: hydrochloride), the melting point lay in the range of 222 to 223 °C.

For `COc1ccc(-c2c[nH]c(C3CCNCC3)n2)cc1` (as salt: hydrochloride), the melting point fell in the range of 272 to 273 °C.

As to `c1ccc(-c2ccc(-c3c[nH]c(C4CCCNC4)n3)cc2)cc1` (stereo not drawn) (as salt: hydrochloride) [Example 22, 3-[4-(1,1′-biphenyl-4-yl)-1H-imidazol-2-yl]piperidine], the melting point fell in the range of 226 to 227 °C.

`c1ccc(CN2CCC(c3nc(-c4ccc(-c5ccccc5)cc4)c[nH]3)CC2)cc1` [Example 12, 1-benzyl4-[4-(1,1′-biphenyl-4-yl)-1H-imidazol-2-yl]piperidine] had a melting point of 110 to 112 °C.

In turn, `CCCCOC(=O)N1CCC(c2nc(-c3ccc(C(C)(C)C)cc3)c[nH]2)CC1` [Example 13, butyl 4-[4-(4-tert-butylphenyl)-1H-imidazol-2-yl]piperidine-1-carboxylate] gave a melting point of 98 to 100 °C.

In turn, `Fc1ccc(-c2c[nH]c(C3CCCCN3Cc3ccccc3)n2)cc1` (stereo not drawn) [Example 17, 1-benzyl-2-[4-(4-fluorophenyl)-1H-imidazol-2-yl]piperidine] returned a melting point of 181.6 °C.

In turn, `CCCCCCN1CCC(c2nc(-c3ccc(-c4ccccc4)cc3)c[nH]2)CC1` [Example 19, 4-[4-(1,1′-biphenyl-4-yl)-1H-imidazol-2-yl]-1-hexylpiperidine] returned a melting point of 138 to 139 °C.

Turning to `CCCCOC(=O)N1CCC(c2nc(-c3ccc(-c4ccccc4)cc3)c[nH]2)CC1` [Example 20, butyl 4-[4-(1,1′-biphenyl-4-yl)-1H-imidazol-2-yl]piperidine-1-carboxylate], the melting point was in the range of 73 to 74 °C.

`CCCCOC(=O)N1CCCCC1c1nc(-c2ccc(-c3ccccc3)cc2)c[nH]1` (stereo not drawn) [Example 23, butyl 2-[4-(1,1′-biphenyl-4-yl)-1H-imidazol-2-yl]piperidine-1-carboxylate] came in with a melting point of 166 to 167 °C.

Regarding `CCCCOC(=O)N1CCCC(c2nc(-c3ccc(-c4ccccc4)cc3)c[nH]2)C1` (stereo not drawn) [Example 24, butyl 3-[4-(1,1′-biphenyl-4-yl)-1H-imidazol-2-yl]piperidine-1-carboxylate], the melting point lay within 116 to 117 °C.

`CCCCOC(=O)N1CCC(c2nc(-c3ccc(OC)cc3)c[nH]2)CC1` [Example 26, butyl 4-[4-(4-methoxyphenyl)-1H-imidazol-2-yl]piperidine-1-carboxylate] returned a melting point of 48 to 50 °C.
